Reference: patent US20200179369A1, “TREATMENT OF DIABETIC NEPHROPATHY” (TAKEDA GMBH, priority 2015, published 2020)

How the values were obtained:
[1] = test system: uninephrectomized db/db mice; assay: Diabetic nephropathy in uninephrectomized db/db mice, 8 week treatment starting 4 weeks after the uninephrectomy; assay type: in vivo; conditions: 8 weeks starting 4 weeks after uninephrectomy
Experimental: Male 5-week-old BKS.Cg-+Lepr^db/+Lepr^db (db/db) mice were purchased from CLEA Japan, Inc. All mice were fed with a standard diet (CE-2, CLEA Japan, Inc.) and tap water ad libitum.
Compound A was obtained from Takeda GmbH, Konstanz, Germany. Irbesartan was purchased from LKT Laboratories, Inc (USA).
In 6 week old male db/db mice an unilateral nephrectomy was performed. Under the anesthesia with isoflurane inhalation, the right kidney was removed from the mice. After 4-week recovery period, blood samples were obtained by the puncture of facial vein and blood level of glycosylated hemoglobin (GHb) was measured by automated HPLC-based GHb analyzer (HLC-723 G8, TOSOH, Japan). After the separation of plasma samples by centrifugation, also plasma levels of glucose (PG) were measured by Autoanalyzer 7180 (Hitachi, Japan). Urine samples were collected for a 8 h time-period using metabolic cages and urine creatinine level was measured by Autoanalyzer 7180. After desaltation of urine samples with PD MiniTrap G-25 column (GE healthcare, UK), urinary levels of albumin were measured by ELISA, and urinary albumin/creatinine ratio (UACR) was calculated.
Compound A (1, 3 and 10 mg/kg, QD), roflumilast (3 mg/kg, QD) and irbesartan (50 mg/kg, QD) were suspended in 0.5% methyl cellulose solution and orally administered to mice for 8 weeks starting 4 weeks after the uninephrectomy.
At the end of the 8 weeks once daily administration blood, plasma and urine samples were obtained according to the same methods as described above. GHb, PG, urinary creatinine and albumin were measured and UACR was calculated. Body weight (BW) was measured every week during the treatment.
For evaluation of the effects of Compound A, statistical differences between vehicle- and Compound A treated groups were analyzed with two-tailed Williams' test for PG and BW and two-tailed Shirley-Williams' test for UACR and GHb. The P-values less than 0.05 were considered statistically significant in two-tailed Williams' test or Shirley-Williams' test.
For roflumilast and irbesartan, statistical differences between vehicle- and compounds-treated groups were analyzed with Student's t-test for GHb, PG and BW and Welch test for UACR. The P-values less than 0.05 were considered statistically significant in Student's t-test and Welch test.

[2] = test system: uninephrectomized db/db mice; assay: Diabetic nephropathy in uninephrectomized db/db mice, 8 week treatment starting 12 weeks after the uninephrectomy; assay type: in vivo; conditions: 8 weeks starting 12 weeks after uninephrectomy
Experimental: The experimental protocol is similar to the experimental protocol described above with the exception that the 8 week treatment with Compound A or irbesartan was started not already at 4 weeks after the uninephrectomy, but only 12 weeks after the uninephrectomy (i.e. when the increase of urinary albumin/creatinine ratio (UACR) is already in a much more advanced stage). Roflumilast was not used as a comparator in this experiment.
Compound A (1, 3 and 10 mg/kg, QD) and irbesartan (50 and 100 mg/kg, QD) were suspended in 0.5% methyl cellulose solution and orally administered to mice for 8 weeks starting 12 weeks after the uninephrectomy.
For evaluation of the effects of Compound A, statistical differences between vehicle- and Compound A treated groups were analyzed with one-tailed Williams' test for GHB, PG and BW and one-tailed Shirley-Williams' test for UACR. For irbesartan, statistical differences between vehicle- and irbesartan treated groups were analyzed with one-tailed Williams' test for UACR, GHb, PG and BW. The P-values less than 0.025 were considered statistically significant in one-tailed Williams' test or one-tailed Shirley-Williams' test.

| Structure (SMILES) | effect on blood level of glycosylated hemoglobin (GHb) ([1]; 50 mg/kg QD oral) | effect on increase of urinary albumin/creatinine ratio (UACR) ([1]; 50 mg/kg QD oral) | effect on plasma levels of glucose (PG) ([1]; 50 mg/kg QD oral) | effect on urinary albumin/creatinine ratio (UACR) ([2]; 50 mg/kg QD oral) | effect on urinary albumin/creatinine ratio (UACR) ([2]; 100 mg/kg QD oral) | effect on body weight (BW) ([2]; 50 and 100 mg/kg QD oral) | effect on glucose plasma levels (PG) ([2]; 50 and 100 mg/kg QD oral) | effect on glycosylated hemoglobin (GHb) ([2]; 50 and 100 mg/kg QD oral) | effect on blood level of glycosylated hemoglobin (GHb) ([1]; 3 mg/kg QD oral) | effect on increase of urinary albumin/creatinine ratio (UACR) ([1]; 3 mg/kg QD oral) | effect on plasma levels of glucose (PG) ([1]; 3 mg/kg QD oral) |
| --- | --- | --- | --- | --- | --- | --- | --- | --- | --- | --- | --- |
| CCCCC1=NC2(CCCC2)C(=O)N1Cc1ccc(-c2ccccc2-c2nnn[nH]2)cc1 [irbesartan, 2-butyl-3-[p-(o-1H-tetrazol-5-ylphenyl)benzyl]-1,3-diazaspiro[4.4]non-1-en-4-one, reference compound] | Almost no effect compared to the vehicle group | tended to suppress the increase of UACR, but its effect was not statistically significant | Almost no effect compared to the vehicle group | significant suppression on increase in UACR | significant suppression on increase in UACR | Neither Compound A nor Irbesartan affected the body weight | did not show inhibitory effects | did not show inhibitory effects | – | – | – |
| O=C(Nc1c(Cl)cncc1Cl)c1ccc(OC(F)F)c(OCC2CC2)c1 [roflumilast, reference compound] | – | – | – | – | – | – | – | – | Almost no effect compared to the vehicle group | mild and was not statistically significant | Almost no effect compared to the vehicle group |
